Source: patent US20220233743A1, “WOUND CLOSURE ENHANCEMENT METHODS AND MATERIALS VIA MANIPULATION OR AUGMENTATION OF LIPIN-1” (Board of Supervisors of Louisiana State University and …, priority 2019, published 2022)

Test system: BMDMs
Test: OCR in response to AC with and without etomoxir, Seahorse
Assay type: cell-based, mouse
Settings: for OCR in response to AC with pretreatment of etomoxir: 40 μM etomoxir 15 min, then AC 4:1
Procedure: Thymocytes (Jurkats) were subjected to UV light for 20 min in a 10-cm dish in sterile PBS. Cells were collected, and media was changed to D10 media followed by a 2-h incubation at 37° C. to allow for cells to become apoptotic. Cells were collected and centrifuged at 400×g for 5 min. Cells were resuspended in 2×10^−6 M PKH26 for 3 min. Staining was stopped by adding equivalent volumes of FBS.
BMDMs collected from lipin-1^mEnzyKO, lipin-1^mKO, and littermate control mice were seeded at a density of 150,000 cells per well on XF24 cell culture microplates and allowed to incubate for 4 h. Experiments were conducted in XF assay medium containing 25 mM glucose, 2 mM 1-glutamine, and 1 mM sodium pyruvate and analyzed using a Seahorse XFe 24 extracellular flux analyzer (Agilent Technologies). Where indicated, the following were injected: ATP-synthesis inhibitor oligomycin (Oligo; 1 μM), carbonyl cyanide 4-(trifluoromethoxy)phenylhydrazone (FCCP) (2 μM) to uncouple ATP synthesis, rotenone (100 nM) to block complex I, and antimycin A (1 μM) (Sigma-Aldrich) to block complex III. Oxygen consumption rate (OCR) was analyzed using Wave Desktop software (Agilent Technologies).
The inventors have shown that lipin-1 is required for increased OCR in response to free fatty acids, but the inventors wanted to know if lipin-1 regulates β-oxidation in response to AC during efferocytosis. BMDMs from WT, lipin-1^mEnzyKO, and lipin-1^mKO mice were either pretreated with or without etomoxir to prevent fatty acid transport into the mitochondria followed by the addition of AC to the macrophages at an AC/BMDM ratio of 4:1. AC were incubated with BMDMs for 30 min prior to the start of Seahorse analysis. […] Etomoxir treatment of unstimulated (no AC) WT, lipin-1 EKO, and lipin-1 KO macrophages allowed the inventors to determine basal lipid use.

## CCOC(=O)[C@@]1(CCCCCCOc2ccc(Cl)cc2)CO1 [etomoxir]
WT macrophages
  OCR in response to AC with pretreatment of etomoxir: significant reduction
lipin-1 EKO macrophages
  OCR in response to AC with pretreatment of etomoxir: significant reduction
lipin-1 KO macrophages
  OCR in response to AC with pretreatment of etomoxir: no significant difference in OCR
Unstimulated (no AC) WT macrophages
  OCR with etomoxir alone (basal lipid use): significant reduction in OCR
Unstimulated (no AC) lipin-1 EKO macrophages
  OCR with etomoxir alone (basal lipid use): significant reduction in OCR
Unstimulated (no AC) lipin-1 KO macrophages
  OCR with etomoxir alone (basal lipid use): significant reduction in OCR
